Measured values published in patent US20200038417A1, “METHODS AND COMPOSITIONS FOR TREATING COGNITIVE IMPAIRMENT” (Enterin, Inc., priority 2018, published 2020).
“Also recorded” adds a separate entry of the source.

How the values were obtained:
[1] = test system: patients with PD and constipation; assay: Effect on bowel function (prokinetic response, stool diary indices), Phase 2 trial; assay type: in vivo, human; conditions: patients with baseline ≥1 CSBM/week
Method: Following successful screening, all subjects underwent a 14-day run-in period where the degree of constipation was assessed through a validated daily log (Zinsmeister et al. 2013) establishing baseline CSBMs/week. Subjects with an average of <3 CSBMs/week proceeded to dosing.
(§1) Tolerability limits included diarrhea or vomiting.
(§2) In Stage 2, 34 patients were evaluated.
The primary efficacy outcome variable was whether or not a subject was a “success” or “failure”. This is an endpoint based on subject diary entries for the “fixed dose” period prior to the endpoint assessment defined as average complete stool frequency increase by 1 or more over baseline, or 3 or more complete spontaneous stools/week. The subject was deemed a “success” if s/he met one or more of the criteria listed above, otherwise the subject was deemed a “failure”. The primary analysis was based on all subjects with a baseline assessment and an assessment at the end of the “fixed-dose” period and was a comparison of the proportion of successes with 0.10 (the null hypothesis corresponding to no treatment effect).

patients with PD [2] = assay: CNS symptoms in Stage 2 (UPDRS, MMSE, PDHQ, BDI-II); assay type: in vivo, human; conditions: during treatment; 5 patients with hallucinations and 1 with delusions at baseline
Text: Exploratory end-points, in addition to constipation, included for example, (i) depression assessed using the Beck Depression Inventory (BDI-II) (Steer et al. 2000) and Unified Parkinson's Disease Rating Scale (UPDRS); (ii) cognition assessed using the Mini Mental State Examination (MMSE) (Palsteia et al. 2018), Unified Parkinson's Disease Rating Scale (UPDRS), and Trail Making Test (TMT); (iii) sleep and REM-behavior disorder (RBD) using a daily sleep diary, I-Button Temperature Assessment, a REM sleep behavior disorder (RBD) questionnaire (RBDQ) (Stiasny-Kolster et al. 2007), and the UPDRS; (iv) hallucinations assessed using the PD hallucinations questionnaire (PDHQ) (Papapetropoulos et al. 2008), the UPDRS, and direct questioning; (v) fatigue using the Parkinson's Disease Fatigue Scale (PFS-16) and the UPDRS; (vi) motor functions using the UPDRS; and (vii) non-motor functions using the UPDRS.
(§3) Assessments were made at baseline and at the end of the fixed dose and washout periods. Circadian system status was evaluated by continuously monitoring wrist skin temperature (Thermochron iButton DS1921H; Maxim, Dallas) following published procedures (Sarabia et al. 2008).
An exploratory analysis was done with respect to the sleep data, the body temperature data, mood, fatigue, hallucinations, cognition and other motor and non-motor symptoms of PD. […]

αS [3] = target: T1, αS (Homo sapiens, UniProt P37840); conditions: in vitro; cited from earlier work
patients with PD [4] = assay: Circadian rhythm of wrist skin temperature (I-Button); assay type: in vivo, human; conditions: fixed dose vs baseline, 12 evaluable patients
Method: (6) I-Button Temperature Assessment. The I-Button is a small, rugged self-sufficient system that measures temperature and records the results in a protected memory section. The Thermochron I-Button DS1921H (Maxim Integrated, Dallas, Tex.) was used for skin temperature measurement. I-Buttons were programmed to sample every 10 mins., and attached to a double-sided cotton sport wrist band using Velcro, with the sensor face of the I-Button placed over the inside of the wrist, on the radial artery of the dominant hand. Subjects removed and replaced the data logger when necessary (i.e., to have a bath or shower). […] From the collected data, the mesor, amplitude, acrophase (time of peak temperature), Rayleight test (an index of interdaily stability), mean waveforms are calculated.);
as §3
Circadian rhythm of skin temperature was evaluable in 12 patients (i.e., those who had recordings that extended from baseline through washout). Circadian system functionality was evaluated by continuously monitoring wrist skin temperature using a temperature sensor (Thermochron iButton DS1921H; Maxim, Dallas, Tex.) (Sarabia et al. 2008). […]

αS [5] = target: T1, αS; conditions: in vitro; cited from earlier work; remark: listed apart in the source
[6] = Preclinical studies of oral squalamine (ENT-01) in rats; assay type: in vivo; conditions: rat, oral dosing of radioactive ENT-01, portal blood concentrations
[7] = Safety and adverse event (AE) profile, Phase 2 trial of oral squalamine (ENT-01); assay type: in vivo, human
Method: as §1, §2

C. elegans αS model = conditions: cited from earlier work; for formation of αS aggregates: C. elegans model of PD in vivo
Solubility in water = assay type: physicochemical; conditions: phosphate salt
[8] = dilactate salt, single and repeat intravenous administration, alone or in combination; cited from earlier work
[9] = test system: gastrointestinal motility; conditions: prior studies; cited from earlier work
[10] = following systemic administration, mice, into the duodenum through the biliary tract; cited from earlier work
mouse models of PD = mouse models of PD (constipation due to overexpression of human αS); cited from earlier work
[11] = test system: IPANs (intrinsic primary afferent neuron); conditions: perfusion through the lumen of isolated bowel segment from the PD mouse model; cited from earlier work
[12] = Stage 2, 34 dosed, unrelated to ENT-01

CC(C)[C@@H](CC[C@@H](C)[C@H]1CC[C@H]2[C@@H]3[C@H](O)C[C@H]4C[C@@H](NCCCNCCCCN)CC[C@]4(C)[C@H]3CC[C@]12C)OS(=O)(=O)O (single isomer, unassigned) [squalamine (ENT-01)]
mean dose required for a bowel (prokinetic) response [1]: 120 mg | hallucinations and delusions improved or disappeared (patients with PD [2]): 5 of 6 | displacement of αS from membranes (αS [3]): displace αS from membranes | markers of circadian function (IS, RA, CFI, IV) of wrist skin temperature rhythm (patients with PD [4]): improved all markers of healthy circadian function | formation of αS aggregates (αS [5]): inhibit the formation of aggregates of αS | absorption from the intestine [6]: low | Blood in urine, Mild [7, 12]: 0 n | Loss of appetite, Mild [7, 12]: 0 n | Lower GI bleed, Severe ([7]; Stage 2, colonic diverticulosis, polyp, patient on aspirin, Plavix and naproxen, unrelated to ENT-01): 1 n | patients with worsening of hemorrhoids ([7]; both stages, 1/44 patients): 2.2% | patients with worsening of acid reflux ([7]; both stages, 2/44 patients): 4.5% | patients with flatulence ([7]; both stages, 3/44 patients): 6.8% | patients with vomiting ([7]; both stages, 3/44 patients): 6.8% | patients with dizziness ([7]; both stages, 8/44 patients): 18% | patients with abdominal pain ([7]; both stages, 11/44 patients): 32% | formation of αS aggregates (C. elegans αS model): inhibit the formation of aggregates of αS | solubility in water (Solubility in water; neutral pH): weakly soluble in water | dissolution in water (Solubility in water; pH<3.5 (the pH of gastric fluid)): readily dissolves

CC(C)[C@@H](CC[C@@H](C)[C@H]1CC[C@H]2[C@@H]3[C@H](O)C[C@H]4C[C@@H](NCCCNCCCCN)CC[C@]4(C)[C@H]3CC[C@]12C)OS(=O)(=O)O [squalamine]
well tolerated dose [8]: at least 300 mg/m^2 | formation of αS aggregates (αS [5]): inhibits the formation of αS aggregates | gastrointestinal motility after intravenous administration [9]: not associated with increased gastrointestinal motility | clearance and excretion [10]: cleared by the liver and excreted as the intact molecule | effect on gastrointestinal motility (mouse models of PD): stimulates gastro-intestinal motility; also recorded: restores gastrointestinal motility; also recorded: reverse gastrointestinal dysmotility | formation of αS aggregates (C. elegans αS model): inhibits the formation of αS aggregates | muscle paralysis / motor dysfunction (C. elegans αS model; C. elegans αS model): reverses motor dysfunction; also recorded: complete reversal of muscle paralysis | effect on IPANs [11]: excitation of IPANs
